US10772886B2, “CXCR-2 inhibitors for treating crystal arthropathy disorders” (ARDEA BIOSCIENCES, INC., priority 2016, dated 2020)

Assays:
neutrophils = assay: Cell migration (chemotaxis) assay, neutrophil counts; assay type: cell-based; settings: 10 μM; MSU-conditioned media; FIG. 1A
PBMCs = assay: Cell migration (chemotaxis) assay, PBMC counts; assay type: cell-based; settings: 10 μM; MSU crystal conditioned media; FIG. 1B
Method: Primary blood monocytes (PMBC) were obtained from the lymphocyte layer (buffy coat) of peripheral blood from normal donors. Each leukopack (Interstate Blood Bank) was diluted with an equal volume of PBS, and 35 mL of blood preparation was over-laid onto 15 mL of Ficoll-Paque™ PLUS (GE Healthcare Bio-Sciences). Tubes were centrifuged at 700×g without breaks for 30 minutes at room temperature. The buffy coat interface was removed, added to PBS (40 mL), and centrifuged at 300×g. Any remaining erythrocytes in the cell pellet were lysed by incubating cells in red blood cell lysis buffer (10 mL, R&D Systems) for 10 minutes at room temperature. Following lysis, PBS (40 mL) was added and the cells centrifuged for 5 minutes at 200×g. The pellet was washed once with PBS and re-suspended in complete RPMI and seeded onto a BD Falcon™ 100 mm tissue culture dish (Cat. No. 353003). After one hour, the media was aspirated and the adherent cells (predominantly monocytes) were harvested using a cell scraper and used in chemotaxis assays. Chemotaxis was assayed in 48-well plates with BD Falcon FluoroBlok Multiwell inserts with 3 μm pores (Cat. No. 351161 or 351162) coated with hFN. […] Fluorescence emitted from cells that had migrated to the bottom surface of the insert was measured at various time points. Cells labeled with Calcein AM were read at 485/530 nm (Ex/Em) wavelength. […]

CXCR-2 = biological target: T1, CXCR-2 (Homo sapiens, UniProt P25025); settings: cited from earlier work
T1 sequence (P25025 1-360): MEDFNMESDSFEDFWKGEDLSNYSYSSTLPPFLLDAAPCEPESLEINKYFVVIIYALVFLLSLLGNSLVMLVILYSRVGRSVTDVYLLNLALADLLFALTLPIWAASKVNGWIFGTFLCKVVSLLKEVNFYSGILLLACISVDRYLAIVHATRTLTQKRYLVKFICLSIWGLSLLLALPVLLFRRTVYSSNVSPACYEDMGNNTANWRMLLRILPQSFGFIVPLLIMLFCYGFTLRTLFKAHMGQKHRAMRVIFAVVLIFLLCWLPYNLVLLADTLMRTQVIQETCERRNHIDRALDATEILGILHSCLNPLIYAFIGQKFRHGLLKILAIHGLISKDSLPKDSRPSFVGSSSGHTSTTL

## O=C(Nc1ccc(Cl)c(S(=O)(=O)N2CCNCC2)c1O)Nc1cccc(F)c1Cl [Compound 1, 1-(4-chloro-2-hydroxy-3-(piperazin-1-ylsulfonyl)phenyl)-3-(2-chloro-3-fluorophenyl)urea]
neutrophils
  inhibition of migration in neutrophils: significant inhibition of migration
PBMCs
  inhibition in migration in PBMCs: significant inhibition in migration
CXCR-2
  inhibit CXCR-2: shown to inhibit CXCR-2
